Some test systems named below: SK-MEL-28; SK-MEL-2; NCI-H522; OVCAR-5; RPMI-8226; SF-268; TK-10; HCT-15; CCRF-CEM; COLO 205; OVCAR-4; UO-31; SK-OV-3; HOP-62; SN12C; MDA-MB-231; 786-0; KM12; U-251; HOP-92.
Holding throughout (experiment): NCI anticancer screen, dose series, 48 h

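How tested: cells in 96-well plates exposed to compound for 48 hours at five concentrations. GI50 = concentration required for 50% inhibition of growth.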 Calls of active or inactive are those of the source. No stated cut-off is given here; in the data, active = GI50 up to about 1.1 µM and inactive = higher.

Consider `CC(=O)N1C(c2[nH]c3ccccc3c2-c2ccccc2)CCN1c1ccccc1` (stereo not drawn), for which the GI50 in the assay on SK-MEL-28, with SK-MEL-2, in the assay with NCI-H522, in the assay on OVCAR-5, in the assay with RPMI-8226 and with SF-268 was > 10 µM (inactive) each time. In addition, the GI50 in the assay on TK-10 was > 10 µM (inactive); in the assay on HCT-15 it was greater than 10 µM; in the assay with CCRF-CEM, 7.8 µM (inactive); in the assay on COLO 205 it was > 10 µM (inactive); with OVCAR-4, > 10 µM (inactive); with UO-31, > 10 µM (inactive). The GI50 in the assay with SK-OV-3, in the assay on HOP-62, in the assay with SN12C, with MDA-MB-231 and in the assay on 786-0 was > 10 µM (inactive) each time.

Take `Clc1ccc(CNc2nc(Cl)c3nc[nH]c3n2)cc1Cl`: the GI50 in the assay on SK-MEL-2 was 22.3 µM (inactive); in the assay on NCI-H522 it was 11.3 µM (inactive); with OVCAR-5, > 100 µM (inactive); with KM12, 29.2 µM (inactive); with U-251, 36.2 µM (inactive); in the assay with SF-268, 25.4 µM (inactive). The GI50 is 12.2 µM (inactive) in the assay with TK-10; 27 µM in the assay with HCT-15; 35.5 µM (inactive) in the assay on CCRF-CEM; 22.6 µM (inactive) in the assay on COLO 205; 35.4 µM (inactive) with OVCAR-4; 11.4 µM (inactive) in the assay on UO-31. The GI50 with SK-OV-3 was 20.6 µM (inactive); in the assay with HOP-62 it was 27.4 µM (inactive); with SN12C it was 21.6 µM (inactive); with MDA-MB-231 it was 30.8 µM (inactive); in the assay with 786-0 it was 27.7 µM (inactive).

`NC(=O)c1nnc2c(F)cccc2c1N`: the GI50 is > 100 µM (inactive) in the assay with SK-MEL-2; 21.9 µM (inactive) with NCI-H522; > 100 µM (inactive) in the assay on OVCAR-5; > 100 µM (inactive) in the assay on RPMI-8226; > 100 µM (inactive) with KM12; > 100 µM (inactive) in the assay with U-251. Moreover, the GI50 in the assay with SF-268 was > 100 µM (inactive); in the assay with TK-10 it was > 100 µM (inactive); in the assay with HCT-15, 92 µM; with CCRF-CEM it was 28.7 µM (inactive); in the assay on COLO 205 it was 73.3 µM (inactive); in the assay with OVCAR-4, > 100 µM (inactive). The GI50 is 56 µM (inactive) in the assay with UO-31; 45.2 µM (inactive) with SK-OV-3; > 100 µM (inactive) in the assay on HOP-62; > 100 µM (inactive) in the assay on SN12C; > 100 µM (inactive) in the assay on MDA-MB-231; > 100 µM (inactive) with 786-0.

In the case of `COC(=O)c1c(O)ccc2c1c1c(n2Cc2ccccn2)C(=O)c2ccccc2C1`, the GI50 is > 100 µM (inactive) in the assay with SK-MEL-28; 75 µM (inactive) with SK-MEL-2; 49.8 µM (inactive) in the assay with OVCAR-5; 13 µM (inactive) with RPMI-8226; > 100 µM (inactive) with KM12; > 100 µM (inactive) in the assay on U-251. Also, the GI50 in the assay on SF-268 is 74.5 µM (inactive); with TK-10, > 100 µM (inactive); in the assay on HCT-15 it was greater than 100 µM; in the assay with CCRF-CEM it was 27.9 µM (inactive); in the assay with COLO 205, 13.5 µM (inactive); in the assay with OVCAR-4 it was 19.4 µM (inactive). Moreover, the GI50 was 54.5 µM (inactive) with UO-31; 96.2 µM (inactive) in the assay on SK-OV-3; > 100 µM (inactive) in the assay on HOP-62; > 100 µM (inactive) in the assay with SN12C; > 100 µM (inactive) in the assay on MDA-MB-231; > 100 µM (inactive) with 786-0.

For `C=C(COC(C)=O)CC(OC(C)=O)c1ccccc1` (stereo not drawn), the GI50 in the assay with SK-MEL-28, with SK-MEL-2, in the assay on NCI-H522, with OVCAR-5, in the assay with RPMI-8226 and with KM12 was > 100 µM (inactive) throughout. Further, the GI50 with U-251 was > 100 µM (inactive); in the assay with SF-268, > 100 µM (inactive); in the assay with HOP-92, > 100 µM (inactive); in the assay with TK-10, > 100 µM (inactive); with HCT-15, greater than 100 µM; with CCRF-CEM, 68.4 µM (inactive). Also, the GI50 in the assay with COLO 205, with OVCAR-4, in the assay with UO-31, with SK-OV-3, with HOP-62 and with SN12C was > 100 µM (inactive) in each case. For the same compound, in the assay with 786-0, the GI50 was > 100 µM (inactive).

Regarding `Nc1ncnc2c1ncn2C1C=CC(CP(=O)(O)O)C1` (stereo not drawn), the GI50 in the assay on SK-MEL-28, in the assay with SK-MEL-2, with OVCAR-5, in the assay with RPMI-8226, in the assay with KM12 and with U-251 was > 100 µM (inactive) in each case. The GI50 is > 100 µM (inactive) with SF-268; > 100 µM (inactive) in the assay with TK-10; greater than 100 µM with HCT-15; > 100 µM (inactive) with COLO 205; > 100 µM (inactive) with OVCAR-4; > 100 µM (inactive) with UO-31. Also, the GI50 with SK-OV-3, in the assay on HOP-62, with SN12C, in the assay with MDA-MB-231 and in the assay on 786-0 was > 100 µM (inactive) each time.

`O=C(CC(C(=O)c1cccs1)c1ccsc1)c1ccc(Cl)cc1` (stereo not drawn): the GI50 in the assay on SK-MEL-28, in the assay with SK-MEL-2, in the assay with OVCAR-5, in the assay on RPMI-8226, in the assay on KM12 and in the assay with U-251 was > 100 µM (inactive) throughout. For the same compound, the GI50 is > 100 µM (inactive) in the assay on SF-268; > 100 µM (inactive) with TK-10; greater than 100 µM in the assay on HCT-15; > 100 µM (inactive) in the assay with CCRF-CEM; > 100 µM (inactive) in the assay on COLO 205; > 100 µM (inactive) in the assay on OVCAR-4. Moreover, the GI50 in the assay with UO-31, in the assay on SK-OV-3, in the assay with HOP-62, with SN12C, in the assay on MDA-MB-231 and in the assay with 786-0 was > 100 µM (inactive) throughout.

Consider `CC1(C)OC2C(=O)C=C(COCc3ccccc3)C2O1` (stereo not drawn), for which the GI50 in the assay with SK-MEL-28 was 30 µM (inactive); in the assay with SK-MEL-2, 38.9 µM (inactive); in the assay on NCI-H522, 16.5 µM (inactive); in the assay on OVCAR-5 it was 31.1 µM (inactive); in the assay on RPMI-8226, 24.8 µM (inactive); with KM12, 21.5 µM (inactive). The GI50 in the assay on U-251 was 29.2 µM (inactive); with SF-268, 25.4 µM (inactive); with TK-10, 28.2 µM (inactive); with HCT-15, 35.2 µM; in the assay on CCRF-CEM, 21 µM (inactive); with COLO 205, 20.5 µM (inactive). Moreover, the GI50 in the assay with UO-31 is 21.9 µM (inactive); in the assay on SK-OV-3 it was 9.44 µM (inactive); with HOP-62 it was 26.4 µM (inactive); in the assay with SN12C it was 28 µM (inactive); in the assay on MDA-MB-231 it was 27.4 µM (inactive); in the assay on 786-0, 42.8 µM (inactive).

Regarding `O=C1NC2(CCCC2)C2CCCCC12O` (stereo not drawn), the GI50 in the assay with SK-MEL-28, in the assay on SK-MEL-2, in the assay with NCI-H522, with OVCAR-5, in the assay with RPMI-8226 and in the assay with KM12 was > 100 µM (inactive) each time. Moreover, the GI50 is > 100 µM (inactive) with U-251; > 100 µM (inactive) in the assay on SF-268; > 100 µM (inactive) in the assay on HOP-92; > 100 µM (inactive) in the assay on TK-10; greater than 100 µM in the assay with HCT-15; > 100 µM (inactive) in the assay on CCRF-CEM. For the same compound, the GI50 in the assay on COLO 205, in the assay on OVCAR-4, in the assay with UO-31, in the assay with SK-OV-3, in the assay with HOP-62 and in the assay on SN12C was > 100 µM (inactive) each time. For the same compound, the GI50 in the assay on 786-0 was > 100 µM (inactive).

For `C#CCOCC12C=CC(O1)C1C(=O)OCC12` (stereo not drawn), the GI50 in the assay on SK-MEL-28, in the assay with NCI-H522, with OVCAR-5, in the assay with RPMI-8226, in the assay on KM12 and with U-251 was > 100 µM (inactive) in each case. Moreover, the GI50 is > 100 µM (inactive) in the assay with SF-268; > 100 µM (inactive) with TK-10; greater than 100 µM in the assay on HCT-15; > 100 µM (inactive) in the assay on CCRF-CEM; > 100 µM (inactive) in the assay with COLO 205; > 100 µM (inactive) in the assay with OVCAR-4. Also, the GI50 in the assay on UO-31, with SK-OV-3, with HOP-62, with SN12C, with MDA-MB-231 and in the assay on 786-0 was > 100 µM (inactive) throughout.

As to `N#CC(=C1C=CC(=NO)C=C1)c1ccc(Cl)cc1`, the GI50 was 15.7 µM (inactive) in the assay with SK-MEL-28; 4.36 µM (inactive) with SK-MEL-2; 2.47 µM (inactive) in the assay on NCI-H522; 11.9 µM (inactive) in the assay with OVCAR-5; 2.6 µM (inactive) in the assay with RPMI-8226; 1.69 µM (inactive) in the assay with KM12. Moreover, the GI50 in the assay with U-251 is 13.6 µM (inactive); in the assay on SF-268 it was 11.9 µM (inactive); in the assay on HOP-92, 20 µM (inactive); in the assay on TK-10, 24.7 µM (inactive); in the assay with HCT-15, 13.7 µM; in the assay on CCRF-CEM, 2.69 µM (inactive). Besides, the GI50 in the assay on COLO 205 was 16.8 µM (inactive); in the assay with OVCAR-4, 22.5 µM (inactive); with UO-31, 11.5 µM (inactive); in the assay on SK-OV-3 it was 22.2 µM (inactive); with HOP-62, 15.3 µM (inactive); in the assay with SN12C, 16.5 µM (inactive). For the same compound, the GI50 with 786-0 is 2.29 µM (inactive).

These data come from ChEMBL document CHEMBL1201862, “PubChem BioAssay data set” (2004).
